# Laboratory results from patent publication US20240216392A1, “METHODS OF TREAMENT” (Arena Pharmaceuticals, Inc., priority 2022, published 2024).
# Like-named read-outs stand apart in the source and are kept apart here.
# Assays:
# [1] = Phase 1 multiple-dose study, plasma PK; assay type: in vivo, human; details: both sexes, human, plasma, oral; for Tmax: read-out: Plasma Tmax, median (minimum, maximum); for AUC: read-out: Plasma AUCtau, geometric mean (geometric CV %); for Cmax: read-out: Plasma Cmax, geometric mean (geometric CV %); for AUC(0-inf): read-out: plasma geometric mean AUC0-inf
# Method: Subjects were enrolled to 1 of 2 dosage regimens. Subject enrollment was stratified by sex to ensure approximate sex balance in each cohort.
# (§1) Morning doses were administered following a standard light breakfast (e.g., milk and cereal, toast, and fruit) on all days. TID dosing (three times a day) was approximately 8 hours apart. Subjects fasted from midnight onwards, until the morning breakfast each day. There was no fluid restriction during the study, but subjects should not have consumed excessive amounts of fluid on any day.
# The Phase 1, open-label, multiple-dose study of Example 1 was conducted for Cohorts 1-3, 4A, and 4B.
# as §1, with “hours apart, and BID dosing (two times a day) was 12 hours” for “hours”, “were” for “should”, “to consume” for “have consumed”
# [2] = system: UGT metabolic pathway and renal transporters; details: single 12 mg dose with probenecid/cimetidine vs alone
# [3] = 12 mg, Day 8, Cohort 2 (12 mg TID)
# [4] = 12 mg, Day 8, Cohort 3 (12 mg BID)
# [5] = 12 mg, Day 9, Cohort 2 (12 mg TID)
# [6] = 12 mg, Day 9, Cohort 3 (12 mg BID)
# [7] = 12 mg, Day 10, Cohort 2 (12 mg TID)
# [8] = 12 mg, Day 10, Cohort 3 (12 mg BID)
# [9] = 15 mg, Day 8, Cohort 4A (15 mg BID)
# [10] = 15 mg, Day 9, Cohort 4A (15 mg BID)
# [11] = 15 mg, Day 10, Cohort 4A (15 mg BID)
# [12] = 18 mg, Day 8, Cohort 4B (18 mg BID)
# [13] = 18 mg, Day 9, Cohort 4B (18 mg BID)
# [14] = 18 mg, Day 10, Cohort 4B (18 mg BID)
compound,measurement,setting,value
"C[C@H]1CN2CCNCc3ccc(C(=O)NCC(F)F)c1c32 [Compound 1, (R)—N-(2,2-difluoroethyl)-7-methyl-1,2,3,4,6,7-hexahydro-[1,4]diazepino[6,7,1-hi]indole-8-carboxamide]",Tmax,"[1]; 6 mg, Day 10, Cohort 1 (6 mg TID)",1.03 h
same,AUC,[1]; [3],190 ng·h/mL
same,Cmax,[1]; [3],36.7 ng/mL
same,half-life,"[1]; 12 mg, Day 8, Cohort 2 (12 mg TID), read-out: Plasma T1/2, mean (SD) (converted)",4.74 h
same,Tmax,[1]; [3],1.01 h
same,AUC,[1]; [4],156 ng·h/mL
same,Cmax,[1]; [4],30.3 ng/mL
same,half-life,"[1]; 12 mg, Day 8, Cohort 3 (12 mg BID), read-out: Plasma T1/2, mean (SD) (converted)",4.32 h
same,Tmax,[1]; [4],1.01 h
same,AUC,[1]; [5],194 ng·h/mL
same,Cmax,[1]; [5],44.5 ng/mL
same,half-life,"[1]; 12 mg, Day 9, Cohort 2 (12 mg TID), read-out: Plasma T1/2, mean (SD) (converted)",4.79 h
same,Tmax,[1]; [5],0.92 h
same,AUC,[1]; [6],163 ng·h/mL
same,Cmax,[1]; [6],37.2 ng/mL
same,half-life,"[1]; 12 mg, Day 9, Cohort 3 (12 mg BID), read-out: Plasma T1/2, mean (SD) (converted)",4.58 h
same,Tmax,[1]; [6],0.93 h
same,AUC,[1]; [7],196 ng·h/mL
same,Cmax,[1]; [7],39.8 ng/mL
same,half-life,"[1]; 12 mg, Day 10, Cohort 2 (12 mg TID), read-out: Plasma T1/2, mean (SD) (converted)",4.08 h
same,Tmax,[1]; [7],1.02 h
same,AUC,[1]; [8],154 ng·h/mL
same,Cmax,[1]; [8],31.3 ng/mL
same,half-life,"[1]; 12 mg, Day 10, Cohort 3 (12 mg BID), read-out: Plasma T1/2, mean (SD) (converted)",3.54 h
same,Tmax,[1]; [8],1 h
same,AUC,[1]; [9],194 ng·h/mL
same,Cmax,[1]; [9],44.8 ng/mL
same,half-life,"[1]; 15 mg, Day 8, Cohort 4A (15 mg BID), read-out: Plasma T1/2, mean (SD) (converted)",5.36 h
same,Tmax,[1]; [9],0.55 h
same,AUC,[1]; [10],208 ng·h/mL
same,Cmax,[1]; [10],50.2 ng/mL
same,half-life,"[1]; 15 mg, Day 9, Cohort 4A (15 mg BID), read-out: Plasma T1/2, mean (SD) (converted)",5.51 h
same,Tmax,[1]; [10],0.57 h
same,AUC,[1]; [11],193 ng·h/mL
same,Cmax,[1]; [11],40.9 ng/mL
same,half-life,"[1]; 15 mg, Day 10, Cohort 4A (15 mg BID), read-out: Plasma T1/2, mean (SD) (converted)",3.72 h
same,Tmax,[1]; [11],1.06 h
same,AUC,[1]; [12],230 ng·h/mL
same,Cmax,[1]; [12],43.2 ng/mL
same,half-life,"[1]; 18 mg, Day 8, Cohort 4B (18 mg BID), read-out: Plasma T1/2, mean (SD) (converted)",5.51 h
same,Tmax,[1]; [12],0.99 h
same,AUC,[1]; [13],242 ng·h/mL
same,Cmax,[1]; [13],47.7 ng/mL
same,half-life,"[1]; 18 mg, Day 9, Cohort 4B (18 mg BID), read-out: Plasma T1/2, mean (SD) (converted)",4.3 h
same,Tmax,[1]; [13],0.5 h
same,AUC,[1]; [14],224 ng·h/mL
same,Cmax,[1]; [14],53 ng/mL
same,half-life,"[1]; 18 mg, Day 10, Cohort 4B (18 mg BID), read-out: Plasma T1/2, mean (SD) (converted)",3.51 h
same,Tmax,[1]; [14],1 h
same,half-life,"[1]; steady state, read-out: half-life at steady state (converted)",~5 h
same,AUC(0-inf),"[1]; Day 1, single 3 mg dose, Cohort 1",21.3 ng·h/mL
same,AUC(0-inf),"[1]; Day 1, single 6 mg dose, Cohorts 2, 3, 4A, 4B",36.5 to 51.9 ng·h/mL
same,increase in Compound 1 exposure,[2],~80%
